How the values were obtained:
[1] = Test Example 3: Solubility in oils and polyols; format: physicochemical; set-up: key: −: Non-soluble; +: Soluble (recrystallization occurred after cooling to room temperature); ++: Very soluble (recrystallization did not occur after cooling to room temperature); settings: heated at 80° C., cooled to room temperature
Method: The ceramides of Example 4, Comparative Example 1, and Comparative Example 2 were mixed with oils and polyols at 0.1 to 1.0 wt % relative to the solvent substance, and then heated with stirring at 80° C. and then cooled to room temperature.

[2] = system: skin erythema index on the cheek area; assay: Test Example 6: erythema relieving effect (Mexameter MX 18); format: in vivo, human
Method: The branched chain fatty acid ceramide-containing formulation prepared in Example 6 was clinically tested for erythema relieving effect. Specifically, for erythema measurement, a total of 10 test subjects were subjected to application of the branched chain fatty acid ceramide-containing formulation prepared in Example 6 twice a day, and measured before use (Week 0), 1 week after use, and 2 weeks after use by an instrument. The skin erythema index on the cheek area was measured using Mexameter MX 18 of Courage+Khazaka (C-K) (Cologne, Germany).

Solubility ([1]; Butylene glycol, 0.1%): + | Solubility ([1]; Butylene glycol, 0.5%): + | Solubility ([1]; Caprylic/capric triglyceride, 0.1%): − | Solubility ([1]; Caprylic/capric triglyceride, 0.5%): − | Solubility ([1]; Cetyl ethyl hexanoate, 0.1%): − | Solubility ([1]; Cetyl ethyl hexanoate, 0.5%): − | Solubility ([1]; Dipropylene glycol, 0.1%): + | Solubility ([1]; Dipropylene glycol, 0.5%): − | Solubility ([1]; Glycerin, 0.1%): − | Solubility ([1]; Glycerin, 0.5%): − | Solubility ([1]; Macadamia ternifolisa seed oil, 0.1%): − | Solubility ([1]; Macadamia ternifolisa seed oil, 0.5%): − | Solubility ([1]; Propylene glycol, 0.1%): − | Solubility ([1]; Propylene glycol, 0.5%): −
SMILES: CCCCCCCC/C=C\CCCCCCCC(=O)N[C@@H](CO)[C@H](O)/C=C/CCCCCCCCCCCCC [Comparative Example 2, Oleoyl ceramide, reference compound]
Erythema (skin erythema index) ([2]; Week 0 (before use)): 261.53 ± 10.82 | Erythema (skin erythema index) ([2]; Week 1, applied twice a day): 236.2 ± 11.578 | Erythema (skin erythema index) ([2]; Week 2, applied twice a day): 213.47 ± 11.518
